Drawing on ChEMBL document CHEMBL5726731, “Substituted benzenesulfonamides as sodium channel blockers” (2019), this text covers IC50 for 79 compounds.

This test is described as follows: Measurement of Sodium Ion Channel Blocking Effects: In order to measure the sodium ion channel blocking effect, an IonFlux16 Auto patch clamp system (Fluxion, Inc.) and a plate for exclusive use were used. The cells were distributed in an extracellular solution (4 mM KCl, 138 mM NaCl, 1 mM MgCl2, 1.8 mM CaCl2, 5.6 mM glucose, 10 mM HEPES, pH 7.45), and then dispensed in the specified region of the plate, and each of the prepared compound samples was diluted at various concentrations, and then dispensed in the specified region of the plate. Type of test: cell-based.
Regarding `COc1ccc(Nc2cc(F)c(S(=O)(=O)Nc3cscn3)cc2Cl)c(N2CC[C@H](N(C)C)C2)c1`, the IC50 was 435 nM.
The figure for `CNC1CCN(c2cc(OC(F)(F)F)ccc2Nc2c(F)cc(S(=O)(=O)Nc3cscn3)cc2F)C1` (centres undefined) is 369 nM; for `COC1CCN(c2cc(F)ccc2Nc2cc(F)c(S(=O)(=O)Nc3cscn3)cc2Cl)C1` (centres undefined) it is 277 nM.
The figure for `CN[C@H]1CCN(c2cc(C(F)(F)F)ccc2Nc2ccc(S(=O)(=O)Nc3cscn3)cc2Cl)C1` is 28 nM; for `CNC1CCN(c2cc(C)ccc2Nc2cc(F)c(S(=O)(=O)Nc3cscn3)cc2Cl)C1` (centres undefined) it is 489 nM; for `CN1CCN(c2cc(C(F)(F)F)ccc2Nc2cc(F)c(S(=O)(=O)Nc3cscn3)cc2Cl)CC1` it is 541 nM.
The value for `CN[C@@H]1CCCN(c2cc(OC)ccc2Nc2ccc(S(=O)(=O)Nc3cscn3)cc2)C1` was > 1000 nM; that for `CN(C)[C@H]1CCN(c2cc(C(F)(F)F)ccc2Nc2cc(F)c(S(=O)(=O)Nc3cscn3)cc2Cl)C1` was 1170 nM; that for `O=S(=O)(Nc1cscn1)c1ccc(Nc2ccc(F)cc2N2CC[C@@H](F)C2)cc1` was > 1000 nM.
`CN(C)[C@@H]1CCN(c2cc(OC(F)F)ccc2Nc2cc(F)c(S(=O)(=O)Nc3cscn3)cc2Cl)C1`: it took 126 nM to reach half-maximal inhibition (IC50).
In turn, `O=S(=O)(Nc1cscn1)c1cc(Cl)c(Nc2ccc(Cl)cc2N2CCC(N3CCCC3)C2)cc1F` (centres undefined) came in with an IC50 of 125 nM.
The value for `CNC1CCN(c2cc(C(F)(F)F)ccc2Nc2ccc(S(=O)(=O)Nc3cscn3)cc2Cl)C1` (centres undefined) was 27 nM; that for `CNC1CCN(c2cc(OC)ccc2Nc2ccc(S(=O)(=O)Nc3cscn3)c(F)c2)C1` (centres undefined) was > 1000 nM.
As for `CC(=O)N[C@@H]1CCN(c2cc(C(F)(F)F)ccc2Nc2cc(F)c(S(=O)(=O)Nc3cscn3)cc2Cl)C1`, the IC50 was determined as 212 nM.
The figure for `CN(C)CCN(C)c1cc(F)ccc1Nc1cc(F)c(S(=O)(=O)Nc2cscn2)cc1Cl` is 100 nM; for `CN[C@@H]1CCCN(c2cc(Cl)ccc2Nc2cc(F)c(S(=O)(=O)Nc3cscn3)cc2Cl)C1` it is 44 nM.
`CC(=O)N[C@@H]1CCN(c2cc(Cl)ccc2Nc2cc(F)c(S(=O)(=O)Nc3cscn3)cc2Cl)C1` registered an IC50 of 120 nM.
For the compound `CN(C)[C@H]1CCN(c2cc(F)ccc2Nc2cc(F)c(S(=O)(=O)Nc3cscn3)cc2Cl)C1`, the IC50 is > 10000 nM.
With `O=S(=O)(Nc1cscn1)c1ccc(Nc2ccc(F)cc2N2CC[C@@H](F)C2)cc1F`, the IC50 was > 1000 nM.
In turn, `COC1CCN(c2cc(C(F)(F)F)ccc2Nc2cc(F)c(S(=O)(=O)Nc3cscn3)cc2Cl)C1` (centres undefined) displayed an IC50 of 140 nM.
As to `CN(C)[C@H]1CCN(c2cc(C(F)(F)F)ccc2Nc2ccc(S(=O)(=O)Nc3cscn3)cc2Cl)C1`, the midpoint of inhibition, the IC50, lay at 103 nM.
The value for `O=S(=O)(Nc1cscn1)c1cc(F)c(Nc2ccc(F)cc2N2CC[C@@H](F)C2)c(F)c1` was > 1000 nM; that for `CN1CCN(c2cc(F)ccc2Nc2cc(F)c(S(=O)(=O)Nc3cscn3)cc2Cl)CC1` was > 1000 nM; that for `NC1CCN(c2cc(F)ccc2Nc2ccc(S(=O)(=O)Nc3cscn3)cc2Cl)C1` (centres undefined) was 241 nM.
Compound `CNC1CCN(c2cc(OC(F)(F)F)ccc2Nc2cc(F)c(S(=O)(=O)Nc3cscn3)cc2Cl)C1` (centres undefined) returned an IC50 of 53 nM.
Compound `CCN(CC)C1CCN(c2cc(Cl)ccc2Nc2cc(F)c(S(=O)(=O)Nc3cscn3)cc2Cl)C1` (centres undefined) showed an IC50 of 182 nM.
Regarding `CNCCN(C)c1ccccc1Nc1cc(F)c(S(=O)(=O)Nc2ccc(F)cn2)cc1Cl`, the IC50 was found to be 70 nM.
The value for `CN[C@H]1CCN(c2cc(F)ccc2Nc2cc(F)c(S(=O)(=O)Nc3cscn3)cc2Cl)C1` was 50 nM; that for `CNC1CCN(c2cc(F)ccc2Nc2ccc(S(=O)(=O)Nc3cscn3)c(F)c2)C1` (centres undefined) was 372 nM.
For `CNCCN(C)c1cc(C#N)ccc1Nc1cc(F)c(S(=O)(=O)Nc2ccccn2)cc1Cl`, the IC50 worked out at 460 nM.
Consider `CN1CCN(c2cc(F)ccc2Nc2ccc(S(=O)(=O)Nc3cscn3)cc2Cl)CC1`, for which the IC50 was > 1000 nM.
For `O=S(=O)(Nc1cscn1)c1cc(Cl)c(Nc2ccc(F)cc2N2CC[C@@H](F)C2)cc1F`, the IC50 was 236 nM.
The value for `O=S(=O)(Nc1cscn1)c1cc(Cl)c(Nc2ccc(F)cc2N2CCCNCC2)cc1F` was 149 nM.
The figure for `CNC1CCN(c2c(F)cccc2Nc2ccc(S(=O)(=O)Nc3cscn3)cc2Cl)C1` (centres undefined) is 375 nM; for `CN[C@@H]1CCCN(c2cc(F)ccc2Nc2ccc(S(=O)(=O)Nc3cscn3)cc2)C1` it is > 1000 nM.
As for `CN[C@@H]1CCCN(c2cc(OC)ccc2Nc2ccc(S(=O)(=O)Nc3cscn3)cc2Cl)C1`, the IC50 was > 1000 nM.
Turning to `CN[C@@H]1CCN(c2cc(F)ccc2Nc2ccc(S(=O)(=O)Nc3cscn3)c(F)c2)C1`, the IC50 was > 300 nM.
`COC1CCN(c2cc(C(F)(F)F)ccc2Nc2ccc(S(=O)(=O)Nc3cscn3)cc2Cl)C1` (centres undefined) registered an IC50 of 352 nM.
As for `CN[C@H]1CCN(c2cc(C(F)(F)F)ccc2Nc2cc(F)c(S(=O)(=O)Nc3cscn3)cc2Cl)C1`, the IC50 amounted to 23 nM.
For `CNCCN(C)c1cc(OC)ccc1Nc1cc(F)c(S(=O)(=O)Nc2cscn2)cc1Cl`, half-maximal inhibition (IC50) required 140 nM.
The figure for `CN1CCN(c2cc(OC(F)F)ccc2Nc2cc(F)c(S(=O)(=O)Nc3cscn3)cc2Cl)CC1` is 160 nM; for `NC1CCN(c2cc(F)ccc2Nc2ccc(S(=O)(=O)Nc3cscn3)c(F)c2)C1` (centres undefined) it is > 1000 nM; for `CNC1CCN(c2cc(F)ccc2Nc2ccc(S(=O)(=O)Nc3cscn3)cc2Cl)C1` (centres undefined) it is 1010 nM.
Take `CNC1CCN(c2nc(Cl)ccc2Nc2cc(F)c(S(=O)(=O)Nc3cscn3)cc2Cl)C1` (centres undefined): the IC50 was > 1000 nM.
The figure for `CNC1CCN(c2cc(F)ccc2Nc2c(F)cc(S(=O)(=O)Nc3cscn3)cc2F)C1` (centres undefined) is 412 nM.
On to `CNC1CCN(c2cc(OC(F)(F)F)ccc2Nc2ccc(S(=O)(=O)Nc3cscn3)cc2)C1` (centres undefined), for which the IC50 was 447 nM.
Regarding `CN(C)CCN(C)c1cc(F)ccc1Nc1ccc(S(=O)(=O)Nc2cscn2)cc1Cl`, half-maximal inhibition (IC50) required 350 nM.
The value for `CN(C)[C@@H]1CCN(c2cc(F)ccc2Nc2cc(F)c(S(=O)(=O)Nc3cscn3)cc2Cl)C1` was 100 nM.
The figure for `CC(=O)N[C@@H]1CCN(c2cc(F)ccc2Nc2cc(F)c(S(=O)(=O)Nc3cscn3)cc2Cl)C1` is 1930 nM; for `CNCCN(C)c1ccccc1Nc1cc(F)c(S(=O)(=O)Nc2nccs2)cc1Cl` it is 50 nM.
The compound `CNCCN(C)c1cc(C(F)(F)F)ccc1Nc1cc(F)c(S(=O)(=O)Nc2ccccn2)cc1Cl` displayed an IC50 of 70 nM.
`CNC1CCN(c2cc(C(F)(F)F)ccc2Nc2cc(F)c(S(=O)(=O)Nc3cscn3)cc2Cl)C1` (centres undefined) gave an IC50 of 21 nM.
`CNCCN(C)c1cc(C#N)ccc1Nc1cc(F)c(S(=O)(=O)Nc2nccs2)cc1Cl` yielded an IC50 of 20 nM.
Consider `CNC1CCN(c2cc(OC(F)(F)F)ccc2Nc2ccc(S(=O)(=O)Nc3cscn3)c(F)c2)C1` (centres undefined), for which the IC50 was 108 nM.
Regarding `CC(=O)N[C@@H]1CCN(c2cc(C(F)(F)F)ccc2Nc2ccc(S(=O)(=O)Nc3cscn3)cc2Cl)C1`, the IC50 was found to be 216 nM.
The figure for `CNCCN(C)c1cc(OC)ccc1Nc1cc(F)c(S(=O)(=O)Nc2ccc(F)cn2)cc1Cl` is 200 nM; for `CN[C@@H]1CCN(c2cc(F)ccc2Nc2ccc(S(=O)(=O)Nc3cscn3)cc2Cl)C1` it is 362 nM; for `CN[C@@H]1CCCN(c2cc(OC)ccc2Nc2cc(F)c(S(=O)(=O)Nc3cscn3)cc2Cl)C1` it is 73 nM.
`CNCCN(C)c1cc(C(F)(F)F)ccc1Nc1cc(F)c(S(=O)(=O)Nc2nccs2)cc1Cl` had an IC50 of 10 nM.
The value for `CNCCN(C)c1cc(C(F)(F)F)ccc1Nc1cc(F)c(S(=O)(=O)Nc2ccc(F)cn2)cc1Cl` was 50 nM; that for `CNC1CCN(c2cc(C#N)ccc2Nc2cc(F)c(S(=O)(=O)Nc3cscn3)cc2Cl)C1` (centres undefined) was 32 nM.
The compound `CN[C@H]1CCN(c2cc(F)ccc2Nc2ccc(S(=O)(=O)Nc3cscn3)c(F)c2)C1` yielded an IC50 of 241 nM.
As to `NC1CCN(c2cc(F)ccc2Nc2cc(F)c(S(=O)(=O)Nc3cscn3)cc2Cl)C1` (centres undefined), the IC50 turned out to be 205 nM.
The figure for `CNC1CCN(c2c(F)cccc2Nc2ccc(S(=O)(=O)Nc3cscn3)c(F)c2)C1` (centres undefined) is 686 nM.
The value for `CN(C)[C@@H]1CCN(c2cc(C(F)(F)F)ccc2Nc2cc(F)c(S(=O)(=O)Nc3cscn3)cc2Cl)C1` was 278 nM.
As to `CNCCN(C)c1cc(OC)ccc1Nc1cc(F)c(S(=O)(=O)Nc2nccs2)cc1Cl`, the IC50 amounted to 20 nM.
The compound `CC(=O)N[C@@H]1CCN(c2cc(F)ccc2Nc2ccc(S(=O)(=O)Nc3cscn3)cc2Cl)C1` yielded an IC50 of 6580 nM.
`O=S(=O)(Nc1cscn1)c1ccc(Nc2ccc(F)cc2N2CC[C@@H](F)C2)c(Cl)c1`: the IC50 was > 1000 nM.
As to `CNC1CCN(c2cc(Cl)cnc2Nc2cc(F)c(S(=O)(=O)Nc3cscn3)cc2Cl)C1` (centres undefined), the IC50 is > 1000 nM.
The figure for `CN[C@@H]1CCN(c2cc(F)ccc2Nc2cc(F)c(S(=O)(=O)Nc3cscn3)cc2Cl)C1` is 44 nM; for `CNC1CCN(c2cc(OC)ccc2Nc2ccc(S(=O)(=O)Nc3cscn3)cc2Cl)C1` (centres undefined) it is > 1000 nM; for `CN[C@@H]1CCCN(c2cc(OC)ccc2Nc2c(F)cc(S(=O)(=O)Nc3cscn3)cc2F)C1` it is > 1000 nM.
Consider `CNCCN(C)c1ccccc1Nc1cc(F)c(S(=O)(=O)Nc2ccccn2)cc1Cl`, for which inhibition was half-maximal at 120 nM (IC50).
The figure for `CN[C@@H]1CCN(c2cc(F)ccc2Nc2c(F)cc(S(=O)(=O)Nc3cscn3)cc2F)C1` is > 1000 nM.
Consider `CN(C)[C@H]1CCN(c2cc(OC(F)F)ccc2Nc2cc(F)c(S(=O)(=O)Nc3cscn3)cc2Cl)C1`, for which the midpoint of inhibition, the IC50, lay at 46 nM.
The value for `CN[C@@H]1CCCN(c2cc(F)ccc2Nc2ccc(S(=O)(=O)Nc3cscn3)c(F)c2)C1` was 357 nM.
The value for `CN[C@@H]1CCN(c2cc(F)ccc2Nc2ccc(S(=O)(=O)Nc3cscn3)cc2)C1` was > 1000 nM; that for `COC1CCN(c2cc(F)ccc2Nc2ccc(S(=O)(=O)Nc3cscn3)cc2Cl)C1` (centres undefined) was 1220 nM.
Take `CN[C@@H]1CCCN(c2cc(OC)ccc2Nc2ccc(S(=O)(=O)Nc3cscn3)c(F)c2)C1`: the IC50 was > 1000 nM.
